Data on 21 compounds can be found in patent publication US11612603B1, “3-triazolyl methyl-1,3,5-triazine-2,4-dione compounds and preparation method and application thereof” (priority 2022, dated 2023).

One data set has as its target SARS-CoV-2 3CL^pro (Severe acute respiratory syndrome coronavirus 2 (2019-nCoV) (SARS-CoV-2), UniProt P0DTD1). The data set is described as follows: biochemical. The conditions noted are these: for IC50: 3CL^pro FRET.
A further data set relates to A549 cells. The data set is described as follows: In vitro cytotoxicity, MTT method, A549 cells. Format: cell-based. The settings on record: for A549 cell viability: 24 h, MTT. How it is done: (§1) HepG2, HEK293 and A549 cells were taken in logarithmic growth phase, digested with trypsin to prepare cell suspensions. The cell density was adjusted to 5×10^4 cells/mL, inoculating 180 μL per well in a sterile 96-well cell culture plate, incubating for 24 h at 37° C. in a 5% CO2 incubator. After the cells were attached to the bottom of the well plate, 20 μL of the drug solutions in a concentration gradient were added to each well, and 6 duplicate wells were set up in parallel, including blank group (no cells, no compounds) and control groups (no compounds). After incubating for 24 h at 37° C. in a 5% CO2 constant temperature incubator, 20 μL of 5 g/L MTT solution was added to each well for 4 h. After the incubation, the culture medium in the wells was gently aspirated, 100 μL of DMSO was added to each well, and the cells were shaken at low speed for 10 min on a shaker to fully dissolve the crystals to calculate cell viability. Cell viability (%)=(Sample Group GD Value−Blank Group GD Value)/(Control Group GD Value−Blank Group GD Value)
For orientation: Formazan colour is commonly taken as a measure of viable cells.

The test system of a further data set is HEK293 cells. The data set is described as follows: In vitro cytotoxicity, MTT method, HEK293 cells. Type of data set: cell-based. The settings on record: for HEK293 cell viability: 24 h, MTT. On the procedure:
as §1

For another data set, the system named is HepG2 cells. Briefly: In vitro cytotoxicity, MTT method, HepG2 cells. Format: cell-based. The conditions noted are these: for HEPG2 cell viability: 24 h, MTT. How it is done:
as §1

Where “and” joins values, the source holds several entries; their conditions need not be identical. Equal entries are not always repeated.

Take `Cn1cc2cc(/N=c3\[nH]c(=O)n(Cc4cnn[nH]4)c(=O)n3Cc3cc(F)c(F)cc3F)c(Cl)cc2n1` [Compound 1]: the IC50 (usually the point on the concentration scale where inhibition reaches its midpoint) against SARS-CoV-2 3CL^pro was 92.6 nM. Besides, the inhibition (as a rule, the change of the read-out against control, counted positive when it falls) at 0.0001 µM at SARS-CoV-2 3CL^pro (Conc 0.1 nM, read-out: Inhibitory activity on 3CL^pro (inhibition rate)) was determined as 1.68%. Further, the inhibition at 0.001 µM at SARS-CoV-2 3CL^pro (Conc 1 nM, read-out: Inhibitory activity on 3CL^pro (inhibition rate)) came out at 2.35%. Also, on SARS-CoV-2 3CL^pro (Conc 5 nM, read-out: Inhibitory activity on 3CL^pro (inhibition rate)), the inhibition at 0.005 µM came to 7.62%. For the same compound, the inhibition at 0.01 µM at SARS-CoV-2 3CL^pro (Conc 10 nM, read-out: Inhibitory activity on 3CL^pro (inhibition rate)) is 10.9%. Besides, the inhibition at 0.02 µM on SARS-CoV-2 3CL^pro (Conc 20 nM, read-out: Inhibitory activity on 3CL^pro (inhibition rate)) turned out to be 15.2%. On SARS-CoV-2 3CL^pro (Conc 30 nM, read-out: Inhibitory activity on 3CL^pro (inhibition rate)), the inhibition at 0.03 µM came to 20.8%. For the same compound, on SARS-CoV-2 3CL^pro (Conc 50 nM, read-out: Inhibitory activity on 3CL^pro (inhibition rate)), the inhibition at 0.05 µM stood at 26.2%. In addition, the inhibition at 0.1 µM on SARS-CoV-2 3CL^pro (Conc 100 nM, read-out: Inhibitory activity on 3CL^pro (inhibition rate)) came to 59.3%. The inhibition at 0.5 µM on SARS-CoV-2 3CL^pro (Conc 500 nM, read-out: Inhibitory activity on 3CL^pro (inhibition rate)) was determined as 82.5%. Moreover, the inhibition at 1 µM on SARS-CoV-2 3CL^pro (Conc 1000 nM, read-out: Inhibitory activity on 3CL^pro (inhibition rate)) was determined as 96.2%. The A549 cell viability in the data set on A549 cells (1.5625 nM) stood at 99.46%; in the data set with A549 cells (3.125 nM), 98.65%; with A549 cells (6.25 nM) it was 98.82%; in the data set on A549 cells (12.5 nM), 98.93%; with A549 cells (25 nM), 98.71%; in the data set on A549 cells (50 nM), 98.76%. Moreover, the A549 cell viability with A549 cells (100 nM) is on record as 98.69%; with A549 cells (200 nM) it was 95.01%; in the data set on A549 cells (400 nM), 93.02%. Besides, in the data set with A549 cells (at any concentration), the “inhibitory rate on A549 cells compared with positive drugs” value is “lower than that of PF-07321332 and S-217622”. For the same compound, the HEK293 cell viability in the data set with HEK293 cells (1.5625 nM) was determined as 99.03%; in the data set on HEK293 cells (3.125 nM), 96.70%; in the data set with HEK293 cells (6.25 nM) it was 94.02%; with HEK293 cells (12.5 nM), 89.50%; in the data set with HEK293 cells (25 nM), 86.03%; with HEK293 cells (50 nM) it was 88.49%. The figures for the HEK293 cell viability in the data set with HEK293 cells (100 nM), in the data set with HEK293 cells (200 nM) and with HEK293 cells (400 nM) were 84.87%, 83.54% and 81.17%, respectively. Moreover, the “inhibitory rate on HEK293 cells compared with positive drugs” value with HEK293 cells (at any concentration) was “lower than that of PF-07321332 and S-217622”. In addition, the HEPG2 cell viability with HepG2 cells (1.5625 nM) amounted to 97.09%; with HepG2 cells (3.125 nM), 96.29%; with HepG2 cells (6.25 nM), 97.83%; in the data set with HepG2 cells (12.5 nM), 95.39%; in the data set with HepG2 cells (25 nM) it was 90.35%; in the data set with HepG2 cells (50 nM), 88.09%. For the same compound, the HEPG2 cell viability in the data set with HepG2 cells (100 nM) was 87.72%; in the data set on HepG2 cells (200 nM) it was 85.58%; in the data set on HepG2 cells (400 nM), 82.62%. Further, in the data set on HepG2 cells (at any concentration), the “inhibitory rate on HepG2 cells compared with positive drugs” value is “lower than that of PF-07321332 and S-217622”.

On SARS-CoV-2 3CL^pro (class symbols), `Cn1cc2cc(/N=c3\[nH]c(=O)n(Cc4cnn[nH]4)c(=O)n3Cc3ccccc3)c(Cl)cc2n1` [Compound 2] had a concentration for half-maximal inhibition (IC50) of 500 to 1000 nM.

With `Cc1ccc(Cn2c(=O)n(Cc3cnn[nH]3)c(=O)[nH]/c2=N\c2cc3cn(C)nc3cc2Cl)cc1` [Compound 3], at SARS-CoV-2 3CL^pro (class symbols), the IC50 is 500 to 1000 nM.

In turn, `Cn1cc2cc(/N=c3\[nH]c(=O)n(Cc4cnn[nH]4)c(=O)n3Cc3ccc(C(C)(C)C)cc3)c(Cl)cc2n1` [Compound 4] gave a concentration for half-maximal inhibition (IC50) at SARS-CoV-2 3CL^pro (class symbols) of 500 to 1000 nM.

On SARS-CoV-2 3CL^pro (class symbols), `Cn1cc2cc(/N=c3\[nH]c(=O)n(Cc4cnn[nH]4)c(=O)n3Cc3ccc([N+](=O)[O-])cc3)c(Cl)cc2n1` [Compound 5] gave an IC50 of 200 to 500 nM.

Turning to `COc1ccc(Cn2c(=O)n(Cc3cnn[nH]3)c(=O)[nH]/c2=N\c2cc3cn(C)nc3cc2Cl)cc1` [Compound 6], the IC50 against SARS-CoV-2 3CL^pro (class symbols) is > 1000 nM.

`Cn1cc2cc(/N=c3\[nH]c(=O)n(Cc4cnn[nH]4)c(=O)n3Cc3ccc(OC(F)(F)F)cc3)c(Cl)cc2n1` [Compound 7]: the half-maximal inhibitory concentration (IC50) at SARS-CoV-2 3CL^pro and against SARS-CoV-2 3CL^pro (class symbols) was < 100 nM each time.

`Cn1cc2cc(/N=c3\[nH]c(=O)n(Cc4cnn[nH]4)c(=O)n3Cc3ccc(F)cc3)c(Cl)cc2n1` [Compound 8]: the IC50 against SARS-CoV-2 3CL^pro (class symbols) lay in the range of 200 to 500 nM.

At SARS-CoV-2 3CL^pro (class symbols), `Cn1cc2cc(/N=c3\[nH]c(=O)n(Cc4cnn[nH]4)c(=O)n3Cc3ccc(Cl)cc3)c(Cl)cc2n1` [Compound 9] registered a concentration for half-maximal inhibition (IC50) of 200 to 500 nM.

On SARS-CoV-2 3CL^pro (class symbols), `Cc1cc(C)cc(Cn2c(=O)n(Cc3cnn[nH]3)c(=O)[nH]/c2=N\c2cc3cn(C)nc3cc2Cl)c1` [Compound 13] returned an IC50 of 500 to 1000 nM.

For `COc1cc(Cn2c(=O)n(Cc3cnn[nH]3)c(=O)[nH]/c2=N\c2cc3cn(C)nc3cc2Cl)cc(OC)c1` [Compound 14], the half-maximal inhibitory concentration (IC50) against SARS-CoV-2 3CL^pro (class symbols) lay within 500 to 1000 nM.

For the compound `Cn1cc2cc(/N=c3\[nH]c(=O)n(Cc4cnn[nH]4)c(=O)n3Cc3cc(F)cc(F)c3)c(Cl)cc2n1` [Compound 15], the IC50 against SARS-CoV-2 3CL^pro is < 200 nM.

With `Cn1cc2cc(/N=c3\[nH]c(=O)n(Cc4cnnn4C)c(=O)n3Cc3cc(F)c(F)cc3F)c(Cl)cc2n1` [Compound 16], at SARS-CoV-2 3CL^pro, the IC50 was < 200 nM.

The compound `Cn1cc2cc(/N=c3\[nH]c(=O)n(Cc4cnnn4C4CC4)c(=O)n3Cc3cc(F)c(F)cc3F)c(Cl)cc2n1` [Compound 21] had a concentration for half-maximal inhibition (IC50) against SARS-CoV-2 3CL^pro (class symbols) of 200 to 500 nM.

For `CC(C)n1nncc1Cn1c(=O)[nH]/c(=N\c2cc3cn(C)nc3cc2Cl)n(Cc2cc(F)c(F)cc2F)c1=O` [Compound 22], the IC50 at SARS-CoV-2 3CL^pro is < 200 nM.

Consider `CC(C)Cn1nncc1Cn1c(=O)[nH]/c(=N\c2cc3cn(C)nc3cc2Cl)n(Cc2cc(F)c(F)cc2F)c1=O` [Compound 23], for which, at SARS-CoV-2 3CL^pro, the IC50 is < 200 nM.

As to `Cn1cc2cc(/N=c3\[nH]c(=O)n(Cc4cnnn4C4CCC4)c(=O)n3Cc3cc(F)c(F)cc3F)c(Cl)cc2n1` [Compound 24], the IC50 against SARS-CoV-2 3CL^pro (class symbols) lay in the range of 200 to 500 nM.

“(E)-6-(2-methyl-2H-indazol-5-yl)imino)-3-(1-ethyl-1H-1,2,3-triazol-5-yl)methyl)-1-(4-fluorobenzyl)-1,3,5-triazine-2,4-dione [Compound 19]”: the IC50 at SARS-CoV-2 3CL^pro (class symbols) lay within 200 to 500 nM.

On to “(E)-6-(6-chloro-2-methyl-2H-indazol-5-yl)imino)-3-(1-ethyl-1H-1,2,3-triazole-5-(yl)methyl)-1-(4-(trifluoromethyl)benzyl)-1,3,5-triazine-2,4-dione [Compound 18]”, for which the concentration for half-maximal inhibition (IC50) at SARS-CoV-2 3CL^pro and against SARS-CoV-2 3CL^pro (class symbols) was < 100 nM in each case.

For “(E)-6-(6-chloro-2-methyl-2H-indazol-5-yl)imino)-3-(1-ethyl-1H-1,2,3-triazole-5-yl)methyl)-1-(2,4,5-trifluorobenzyl)-1,3,5-triazine-2,4-dione [Compound 17]”, the half-maximal inhibitory concentration (IC50) is < 200 nM and < 100 nM and 123 nM against SARS-CoV-2 3CL^pro; < 100 nM at SARS-CoV-2 3CL^pro (class symbols). The “Inhibitory activity on 3CL^pro (inhibition rate)” value on SARS-CoV-2 3CL^pro (Conc 0.1 nM) amounted to 0.65%; at SARS-CoV-2 3CL^pro (Conc 1 nM), 5.00%; on SARS-CoV-2 3CL^pro (Conc 5 nM), 8.20%; on SARS-CoV-2 3CL^pro (Conc 10 nM) it was 15.16%; on SARS-CoV-2 3CL^pro (Conc 20 nM) it was 18.22%; on SARS-CoV-2 3CL^pro (Conc 30 nM), 24.39%. Also, the “Inhibitory activity on 3CL^pro (inhibition rate)” value on SARS-CoV-2 3CL^pro (Conc 50 nM) came out at 33.16%; on SARS-CoV-2 3CL^pro (Conc 100 nM) it was 45.44%; on SARS-CoV-2 3CL^pro (Conc 500 nM), 70.62%; at SARS-CoV-2 3CL^pro (Conc 1000 nM), 89.73%.

Compound “(E)-6-(6-chloro-2-methyl-2H-indazol-5-yl)imino)-3-(1-ethyl-1H-1,2,3-triazole-5-yl)methyl)-1-(4-fluorobenzyl)-1,3,5-triazine-2,4-dione [Compound 20]” had a half-maximal inhibitory concentration (IC50) against SARS-CoV-2 3CL^pro (class symbols) of 200 to 500 nM.
